# Values quoted from earlier work as cited in patent US20250057829A1, “INHIBITORS OF TRPC6 FOR TREATING FOCAL SEGMENTAL GLOMERULOSCLEROSIS” (Boehringer Ingelheim International GmbH, priority 2023, published 2025).
# Test system: adults and children with steroid resistant FSGS
# Settings: week 8, follow-up vs. baseline; cited from earlier work
substance,measurement,value
mycophenolate mofetil/dexamethasone [MMF/DEX],reduction of UPCR,~50%
